Data from US5563155A, “Individual stereosiomers of 7-[3-(aminoalkyl)-1-pyrrolidinyl]-quinolones and naphthyridones as antibacterial agents” (Warner-Lambert Company, priority 1995, dated 1996).
In brackets after ≈: the same amount, converted by molar mass. Counter-ions that a name gives are not always drawn. Like-named read-outs stand apart in the source and are kept apart here.

What was measured:
Strep. pyogenes C-203 [1] = assay: in vitro antibacterial activity, microtitration dilution (MIC), Strep. pyogenes C-203; type: cell-based; conditions: Streptococcus pyogenes, C203, read-out: minimum inhibiting concentration (MIC)
Source text: (§1) The in vitro antibacterial activity, is obtained by the microtitration dilution method as described in Heifetz, et al., Antimicr. Agents & Chemother., 6, 124 (1974), which is incorporated herein by reference.
(§2) By use of the above methods, the following minimum inhibiting concentration values (MICs in μg/mL), PD50 's in mg/kg, no effect phototoxicity dose in mg/kg and the cytotoxicity IC50 in μg/mL were obtained for representative enantiomers of the invention and compounds of the prior art as shown in the table.

Klebs. pneumoniae MGH-2 = assay: in vitro antibacterial activity, microtitration dilution (MIC), Klebs. pneumoniae MGH-2; type: cell-based; conditions: Klebsiella pneumoniae, MGH2, read-out: minimum inhibiting concentration (MIC)
Source text: as §1, §2

Strep. faecalis MGH-2 = assay: in vitro antibacterial activity, microtitration dilution (MIC), Strep. faecalis MGH-2; type: cell-based; conditions: Enterococcus faecalis, MGH2, read-out: minimum inhibiting concentration (MIC)
Source text: as §1, §2

[2] = cytotoxicity, hamster V-79 cells, colony reduction; type: cell-based; conditions: 3 hours treatment, colonies counted after 5 days, read-out: Cytotox (cytotoxicity IC50)
Procedure: The cytotoxicity data is obtained using hamster V-79 cells. The cells were suspended in tissue culture medium and grown overnight. Cells were treated with drug for 3 hours, washed free of drug and then replated, and the colonies counted after 5 days. The concentration of drug that reduced colones by 50% relative to control was recorded.
as §2

Pseud. aeruginosa UI-18 = assay: in vitro antibacterial activity, microtitration dilution (MIC), Pseud. aeruginosa UI-18; type: cell-based; conditions: Pseudomonas aeruginosa, UI18, read-out: minimum inhibiting concentration (MIC)
Source text: as §1, §2

Esch. coli Vogel [3] = assay: in vitro antibacterial activity, microtitration dilution (MIC), Esch. coli Vogel; type: cell-based; conditions: Escherichia coli, read-out: minimum inhibiting concentration (MIC)
Source text: as §1, §2

Strep. pheumoniae SV-1 [4] = assay: median protective dose in mice given lethal systemic infections, Strep. pneumoniae SV-1; type: in vivo; conditions: Streptococcus pneumoniae, single dose at time of challenge, read-out: median protective dose (PD50)
Procedure: (§3) The in vivo activity is obtained when the compounds are tested according to the procedure of Miller, et al (Proc. Soc. Exp. Biol. Med. 57, 261, 1944). The median protective dose (PD50) was determined in mice given lethal systemic infections. Single doses of compound were given at time of challenge.
as §2
(§4) The in vivo data as PD50 s are reported below the line of MICs for the same compound.

Staph. aureus H 228 = assay: in vitro antibacterial activity, microtitration dilution (MIC), Staph. aureus H 228; type: cell-based; conditions: Staphylococcus aureus, H228, read-out: minimum inhibiting concentration (MIC)
Source text: as §1, §2

Prot. rettgeri M 1771 = assay: in vitro antibacterial activity, microtitration dilution (MIC), Prot. rettgeri M 1771; type: cell-based; conditions: Providencia rettgeri, M1771, read-out: minimum inhibiting concentration (MIC)
Source text: as §1, §2

Ent. cloacae MA2646 = assay: in vitro antibacterial activity, microtitration dilution (MIC), Ent. cloacae MA2646; type: cell-based; conditions: Enterobacter cloacae, read-out: minimum inhibiting concentration (MIC)
Source text: as §1, §2

Staph. aureus UC-76 = assay: in vitro antibacterial activity, microtitration dilution (MIC), Staph. aureus UC-76; type: cell-based; conditions: Staphylococcus aureus, UC76, read-out: minimum inhibiting concentration (MIC)
Source text: as §1, §2

Strep. pheumoniae SV-1 [5] = assay: in vitro antibacterial activity, microtitration dilution (MIC), Strep. pneumoniae SV-1; type: cell-based; conditions: Streptococcus pneumoniae, SV1, read-out: minimum inhibiting concentration (MIC)
Source text: as §1, §2

Esch. coli Vogel [6] = assay: median protective dose in mice given lethal systemic infections, Esch. coli Vogel; type: in vivo; conditions: Escherichia coli, single dose at time of challenge, read-out: median protective dose (PD50)
Procedure: as §3, §2, §4

Strep. pyogenes C-203 [7] = assay: median protective dose in mice given lethal systemic infections, Strep. pyogenes C-203; type: in vivo; conditions: Streptococcus pyogenes, single dose at time of challenge, read-out: median protective dose (PD50)
Procedure: as §3, §2, §4

Structure (SMILES) | MIC (Strep. pyogenes C-203 [1]) [mg/L] | MIC (Klebs. pneumoniae MGH-2) [mg/L] | MIC (Strep. faecalis MGH-2) [mg/L] | CC50 at 3 h [2] [mg/L] | MIC (Pseud. aeruginosa UI-18) [mg/L] | MIC (Esch. coli Vogel [3]) [mg/L] | ED50 (Strep. pheumoniae SV-1 [4]; SV1, PO) [mg/kg] | ED50 (Strep. pheumoniae SV-1 [4]; SV1, SC) [mg/kg] | MIC (Staph. aureus H 228) [mg/L] | MIC (Prot. rettgeri M 1771) [mg/L] | MIC (Ent. cloacae MA2646) [mg/L] | MIC (Staph. aureus UC-76) [mg/L] | MIC (Strep. pheumoniae SV-1 [5]) [mg/L] | ED50 (Esch. coli Vogel [6]; PO) [mg/kg] | ED50 (Esch. coli Vogel [6]; SC) [mg/kg] | ED50 (Strep. pyogenes C-203 [7]; C203, PO) [mg/kg] | ED50 (Strep. pyogenes C-203 [7]; C203, SC) [mg/kg]
C[C@@H](N)[C@H]1CCN(c2cc3c(cc2F)c(=O)c(C(=O)O)cn3C2CC2)C1 [Example 1, 3S,1R-1-cyclopropyl-6-fluoro-7-[3-(1-aminoethyl)-1-pyrrolidinyl]-1,4-dihydro-4-oxo-3-quinolinecarboxylic acid] | 0.1 (≈ 0.278 µM) | 0.4 (≈ 1.11 µM) | 0.2 (≈ 0.556 µM) | 160 (≈ 445 µM) | 1.5 (≈ 4.17 µM) | 0.2 (≈ 0.556 µM) | > 100 | 3 | 0.4 (≈ 1.11 µM) | 0.8 (≈ 2.23 µM) | 0.2 (≈ 0.556 µM) | 0.05 (≈ 0.139 µM) | 0.1 (≈ 0.278 µM) | 35 | 2 | – | –
CN[C@@H](C)[C@@H]1CCN(c2nc3c(cc2F)c(=O)c(C(=O)O)cn3-c2ccc(F)cc2F)C1 [Example 64, 3R,1S-1-(2,4-difluorophenyl)-6-fluoro-1,4-dihydro-7-[3-[1-(methylamino)ethyl]-1-pyrrolidinyl]-4-oxo-1,8-naphthyridine-3-carboxylic acid, monohydrochloride] | 0.05 | 0.8 | 0.2 | 310 | 3.1 | 0.4 | – | – | 0.1 | 1.6 | 0.8 | 0.025 | 0.025 | 5 | 2 | 4 | 2
C[C@H](N)[C@@H]1CCN(c2cc3c(cc2F)c(=O)c(C(=O)O)cn3C2CC2)C1 [Example 3, 3R,1S-1-cyclopropyl-6-fluoro-7-[3-(1-aminoethyl)-1-pyrrolidinyl]-1,4-dihydro-4-oxo-3-quinolinecarboxylic acid] | 0.003 (≈ 0.00835 µM) | 0.1 (≈ 0.278 µM) | 0.025 (≈ 0.0696 µM) | 42 (≈ 117 µM) | 0.4 (≈ 1.11 µM) | 0.05 (≈ 0.139 µM) | 11 | 0.7 | 0.05 (≈ 0.139 µM) | 0.2 (≈ 0.556 µM) | 0.05 (≈ 0.139 µM) | 0.003 (≈ 0.00835 µM) | 0.003 (≈ 0.00835 µM) | 47 | 0.9 | – | –
C[C@H](N)[C@H]1CCN(c2cc3c(cc2F)c(=O)c(C(=O)O)cn3C2CC2)C1 [Example 2, 3S,1S-1-cyclopropyl-6-fluoro-7-[3-(1-aminoethyl)-1-pyrrolidinyl]-1,4-dihydro-4-oxo-3-quinolinecarboxylic acid] | 0.1 (≈ 0.278 µM) | 0.4 (≈ 1.11 µM) | 0.4 (≈ 1.11 µM) | 160 (≈ 445 µM) | 1.5 (≈ 4.17 µM) | 0.2 (≈ 0.556 µM) | > 100 | 12 | 0.8 (≈ 2.23 µM) | 0.8 (≈ 2.23 µM) | 0.2 (≈ 0.556 µM) | 0.1 (≈ 0.278 µM) | 0.2 (≈ 0.556 µM) | 100 | 4 | – | –
C[C@@H](N)[C@@H]1CCN(c2cc3c(cc2F)c(=O)c(C(=O)O)cn3C2CC2)C1 [Example 4, 3R,1R-1-cyclopropyl-6-fluoro-7-[3-(1-aminoethyl)-1-pyrrolidinyl]-1,4-dihydro-4-oxo-3-quinolinecarboxylic acid] | 0.1 (≈ 0.278 µM) | 0.4 (≈ 1.11 µM) | 0.1 (≈ 0.278 µM) | 140 (≈ 390 µM) | 1.6 (≈ 4.45 µM) | 0.1 (≈ 0.278 µM) | 105 | 2 | 0.2 (≈ 0.556 µM) | 0.8 (≈ 2.23 µM) | 0.2 (≈ 0.556 µM) | 0.05 (≈ 0.139 µM) | 0.025 (≈ 0.0696 µM) | 72 | 2 | – | –
CN[C@@H](C)[C@@H]1CCN(c2nc3c(cc2F)c(=O)c(C(=O)O)cn3C2CC2)C1 [Example 21, 3R,1S-1-cyclopropyl-6-fluoro-7-[3-(1-N-methylaminoethyl)-1-pyrrolidinyl]-1,4-dihydro-4-oxo-1,8-naphthyridine-3-carboxylic acid] | 0.025 (≈ 0.0668 µM) | 0.2 (≈ 0.534 µM) | 0.05 (≈ 0.134 µM) | 130 (≈ 347 µM) | 1.6 (≈ 4.27 µM) | 0.1 (≈ 0.267 µM) | – | – | 0.05 (≈ 0.134 µM) | 0.4 (≈ 1.07 µM) | 0.1 (≈ 0.267 µM) | 0.0013 (≈ 0.00347 µM) | 0.013 (≈ 0.0347 µM) | 1 | 0.5 | 2 | 2
